Reference: ChEMBL document CHEMBL1132827, “New multidrug resistance modulators from Atractylodis Lanceae Rhizoma” (2000)

Assays:
KB-C2 [1] = assay: Inhibition of growth of KB-C2 cells at the dose of 10 ug/mL of compound in presence of 0.1 ug/mL of colchicine
KB-C2 [2] = assay: Inhibition of growth of KB-C2 cells at the dose of 3 ug/mL of compound in presence of 0.1 ug/mL of colchicine
KB-C2 [3] = assay: Inhibition of growth of KB-C2 cells at the dose of 1 ug/mL of compound in presence of 0.1 ug/mL of colchicine
KB 3-1 [4] = assay: Cytotoxicity (10 ug/mL) was evaluated against KB-3-1 cell lines by observing the effect on growth of cells tested; assay type: functional, Homo sapiens
KB 3-1 [5] = assay: Cytotoxicity (1 ug/mL) was evaluated against KB-3-1 cell lines by observing the effect on growth of cells tested; assay type: functional, Homo sapiens
KB 3-1 [6] = assay: Cytotoxicity (3 ug/mL) was evaluated against KB-3-1 cell lines by observing the effect on growth of cells tested; assay type: functional, Homo sapiens

Row | Compound | Inhibition (KB-C2 [1]) [%] | Inhibition (KB-C2 [2]) [%] | Inhibition (KB-C2 [3]) [%] | Inhibition (KB 3-1 [4]) [%] | Inhibition (KB 3-1 [5]) [%] | Inhibition (KB 3-1 [6]) [%]
1 | CC(C)CC(=O)OC[C@H]1O[C@@](COC(=O)CC(C)C)(O[C@@H]2O[C@H](CO)[C@@H](O)[C@H](O)[C@H]2OC(=O)CC(C)C)[C@@H](OC(=O)CC(C)C)[C@@H]1O.CC[C@@H](C)C(=O)OC[C@@]1(O[C@@H]2O[C@H](CO)[C@@H](O)[C@H](O)[C@H]2OC(=O)CC(C)C)O[C@H](COC(=O)CC(C)C)[C@@H](O)[C@@H]1OC(=O)CC(C)C | 33 | 32 | 23 | 20 | 17 | 19
2 | CC(C)CC(=O)OC[C@H]1O[C@@](COC(=O)C(C)C)(O[C@@H]2O[C@H](CO)[C@@H](O)[C@H](O)[C@H]2OC(=O)CC(C)C)[C@@H](OC(=O)CC(C)C)[C@@H]1OC(=O)CC(C)C.CC(C)CC(=O)OC[C@H]1O[C@@](COC(=O)CC(C)C)(O[C@@H]2O[C@H](CO)[C@@H](O)[C@H](O)[C@H]2OC(=O)CC(C)C)[C@@H](OC(=O)CC(C)C)[C@@H]1OC(=O)C(C)C.CC[C@@H](C)C(=O)OC[C@@]1(O[C@@H]2O[C@H](CO)[C@@H](O)[C@H](O)[C@H]2OC(=O)CC(C)C)O[C@H](COC(=O)CC(C)C)[C@@H](OC(=O)C(C)C)[C@@H]1OC(=O)CC(C)C.CC[C@@H](C)C(=O)O[C@@H]1[C@@H](COC(=O)CC(C)C)O[C@@](COC(=O)C(C)C)(O[C@@H]2O[C@H](CO)[C@@H](O)[C@H](O)[C@H]2OC(=O)CC(C)C)[C@H]1OC(=O)CC(C)C | 96 | 83 | 38 | 94 | 6 | 13
3 | CC(C)CC(=O)OC[C@H]1O[C@@](COC(=O)CC(C)C)(O[C@H]2O[C@H](CO)[C@@H](O)[C@H](O)[C@H]2OC(=O)CC(C)C)[C@@H](OC(=O)CC(C)C)[C@@H]1OC(=O)CC(C)C.CC[C@@H](C)C(=O)OC[C@@]1(O[C@H]2O[C@H](CO)[C@@H](O)[C@H](O)[C@H]2OC(=O)CC(C)C)O[C@H](COC(=O)CC(C)C)[C@@H](OC(=O)CC(C)C)[C@@H]1OC(=O)CC(C)C.CC[C@@H](C)C(=O)O[C@@H]1[C@@H](COC(=O)CC(C)C)O[C@@](COC(=O)CC(C)C)(O[C@H]2O[C@H](CO)[C@@H](O)[C@H](O)[C@H]2OC(=O)CC(C)C)[C@H]1OC(=O)CC(C)C | 96 | 86 | 57 | 95 | 11 | 14
